{"source": "patent US4442115A", "about": "“2'Hydroxy tetrazole-5-carboxanilides and anti-allergic use thereof” (May & Baker Limited, priority 1977, dated 1984)", "format_in_all_cases": "in vivo", "key": {"[1]": {"system": "passive cutaneous anaphylactic (PCA) reaction", "experiment": "suppression of passive cutaneous anaphylactic (PCA) reaction, intravenous administration", "conditions": "Rattus norvegicus, rats, i.v., just before injection of allergen, read-out: ED 100 (i.v.): intravenous dose which produces 100% inhibition of the PCA reaction", "text": "(§1) In pharmacological tests the new compounds suppress the passive cutaneous anaphylactic (PCA) reaction resulting from combination of tissue-fixed reaginic antibodies with the appropriate antigenic material (termed reagin-allergen combination) and carried out in an essentially similar manner to that described by Ogilvie [Nature (Lond.), (1964), 204, 91-92; Immunology, (1967), 12, 112-131]. In the method used to test these compounds sera were obtained from rats which had been infected with larvae of the nematode parasite Nippostrongylus brasiliensis; as a result of the parasitic infestation reaginic antibodies are elaborated in the host mammal and are found in sera removed from such animals. Other, non-infected, rats received intradermal injections of appropriate dilutions of such sera and were then given the allergenic material along with Evans' blue dye intravenously forty-eight hours later.\n(§2) The allergenic material consisted of supernatant fluid after centrifugation of homogenates of adult Nippostrongylus brasiliensis worms which had been macerated in Tyrode's solution. The sites of PCA reactions were visualised by the effusion of Evans' blue dye from the circulation into those areas as a result of increased capillary permeability caused by the release of biologically-active substances from cells where reagin-allergen combination had occurred. The new compounds when given intravenously to the rats just before injection of allergen, or administered orally thirty minutes before intravenous injection of allergen, were able to prevent the development of the PCA reaction, as shown below in Table I and Table II."}, "[2]": {"system": "passive cutaneous anaphylactic (PCA) reaction", "experiment": "suppression of passive cutaneous anaphylactic (PCA) reaction, oral administration", "conditions": "Rattus norvegicus, rats, p.o., thirty minutes before intravenous injection of allergen, read-out: ED 50 (p.o.): oral dose which produces 50% inhibition of the PCA reaction", "text": "as §1, §2"}, "oral toxicity in mice": {"experiment": "oral toxicity in mice", "conditions": "1000 mg/kg animal body weight, observation period of 3 days"}}}
{"smiles": "CCC(=O)c1cc(CC)cc(NC(=O)c2nnn[nH]2)c1O", "note": "[AA, 5'-ethyl-2'-hydroxy-3'-propionyltetrazole-5-carboxanilide]", "values": [{"measurement": "ED100", "setting": "[1]", "result": 0.01, "unit": "mg/kg"}, {"measurement": "ED50", "setting": "[2]", "result": 1.3, "unit": "mg/kg"}]}
{"smiles": "CCC(=O)c1cc(C)cc(NC(=O)c2nnn[nH]2)c1O", "note": "[BB, 2'-hydroxy-5'-methyl-3'-propionyltetrazole-5-carboxanilide]", "values": [{"measurement": "ED100", "setting": "[1]", "result": 0.02, "unit": "mg/kg"}, {"measurement": "ED50", "setting": "[2]", "result": 0.88, "unit": "mg/kg"}]}
{"smiles": "COc1cc(Br)cc(NC(=O)c2nnn[nH]2)c1O", "note": "[CC, 5'-bromo-2'-hydroxy-3'-methoxytetrazole-5-carboxanilide]", "values": [{"measurement": "ED100", "setting": "[1]", "result": 0.05, "unit": "mg/kg"}, {"measurement": "ED50", "setting": "[2]", "result": 16, "unit": "mg/kg"}]}
{"smiles": "O=C(Nc1ccccc1O)c1nnn[nH]1", "note": "[Compound A, 2'-hydroxytetrazole-5-carboxanilide]", "values": [{"measurement": "ED100", "setting": "[1]", "result": 0.2, "unit": "mg/kg"}, {"measurement": "ED50", "setting": "[2]", "result": 5.5, "unit": "mg/kg"}]}
{"smiles": "CC(=O)c1cc(C)cc(NC(=O)c2nnn[nH]2)c1O", "note": "[Compound B, 3'-acetyl-2'-hydroxy-5'-methyltetrazole-5-carboxanilide]", "values": [{"measurement": "ED100", "setting": "[1]", "result": 0.01, "unit": "mg/kg"}, {"measurement": "deaths during observation period", "setting": "oral toxicity in mice", "result": "no deaths occurred"}, {"measurement": "ED50", "setting": "[2]", "result": 0.06, "unit": "mg/kg"}]}
{"smiles": "CCc1cccc(NC(=O)c2nnn[nH]2)c1O", "note": "[Compound C, 3'-ethyl-2'-hydroxytetrazole-5-carboxanilide]", "values": [{"measurement": "ED100", "setting": "[1]", "result": 0.1, "unit": "mg/kg"}, {"measurement": "ED50", "setting": "[2]", "result": 0.7, "unit": "mg/kg"}]}
{"smiles": "CCc1cc(NC(=O)c2nnn[nH]2)c(O)c(C(C)=O)c1", "note": "[Compound D, 3'-acetyl-5'-ethyl-2'-hydroxytetrazole-5-carboxanilide]", "values": [{"measurement": "ED100", "setting": "[1]", "result": 0.01, "unit": "mg/kg"}, {"measurement": "ED50", "setting": "[2]", "result": 0.19, "unit": "mg/kg"}]}
{"smiles": "CC(=NO)c1cc(C)cc(NC(=O)c2nn[nH]n2)c1O", "note": "[Compound DD, 2'-hydroxy-3'-(1-hydroxyimino)ethyl-5'-methyltetrazole-5-carboxanilide]", "values": [{"measurement": "ED100", "setting": "[1]", "result": 0.002, "unit": "mg/kg"}]}
{"smiles": "CC(=O)c1cc([N+](=O)[O-])cc(NC(=O)c2nnn[nH]2)c1O", "note": "[E, 3'-acetyl-2'-hydroxy-5'-nitrotetrazole-5-carboxanilide]", "values": [{"measurement": "ED100", "setting": "[1]", "result": 0.02, "unit": "mg/kg"}, {"measurement": "ED50", "setting": "[2]", "result": 0.04, "unit": "mg/kg"}]}
{"smiles": "CON=C(C)c1cc(C)cc(NC(=O)c2nn[nH]n2)c1O", "note": "[EE, 2'-hydroxy-3'-(1-methoxyimino)ethyl-5'-methyltetrazole-5-carboxanilide]", "values": [{"measurement": "ED100", "setting": "[1]", "result": 0.02, "unit": "mg/kg"}]}
{"smiles": "Cc1cc(NC(=O)c2nnn[nH]2)c(O)c(C(=O)C(C)C)c1", "note": "[G, 2'-hydroxy-3'-isobutyryl-5'-methyltetrazole-5-carboxanilide]", "values": [{"measurement": "ED100", "setting": "[1]", "result": 0.02, "unit": "mg/kg"}, {"measurement": "ED50", "setting": "[2]", "result": 3.2, "unit": "mg/kg"}]}
{"smiles": "CC(=O)c1cc(C#N)cc(NC(=O)c2nnn[nH]2)c1O", "note": "[H, 3'-acetyl-5'-cyano-2'-hydroxytetrazole-5-carboxanilide]", "values": [{"measurement": "ED100", "setting": "[1]", "result": 0.01, "unit": "mg/kg"}, {"measurement": "ED50", "setting": "[2]", "result": 0.4, "unit": "mg/kg"}]}
{"smiles": "Cc1cc(NC(=O)c2nnn[nH]2)c(O)c(C(=O)C2CC2)c1", "note": "[I, 3'-cyclopropylcarbonyl-2'-hydroxy-5'-methyltetrazole-5-carboxanilide]", "values": [{"measurement": "ED100", "setting": "[1]", "result": 0.02, "unit": "mg/kg"}, {"measurement": "deaths during observation period", "setting": "oral toxicity in mice", "result": "no deaths occurred"}]}
{"smiles": "CC(=O)c1cc(F)cc(NC(=O)c2nnn[nH]2)c1O", "note": "[K, 3'-acetyl-5'-fluoro-2'-hydroxytetrazole-5-carboxanilide]", "values": [{"measurement": "ED100", "setting": "[1]", "result": 0.01, "unit": "mg/kg"}]}
{"smiles": "CC(=O)c1cc(Br)cc(NC(=O)c2nnn[nH]2)c1O", "note": "[L, 3'-acetyl-5'-bromo-2'-hydroxytetrazole-5-carboxanilide]", "values": [{"measurement": "ED100", "setting": "[1]", "result": 0.05, "unit": "mg/kg"}]}
{"smiles": "COc1cc(NC(=O)c2nnn[nH]2)c(O)c(C(C)=O)c1", "note": "[M, 3'-acetyl-2'-hydroxy-5'-methoxytetrazole-5-carboxanilide]", "values": [{"measurement": "ED100", "setting": "[1]", "result": 0.01, "unit": "mg/kg"}]}
{"smiles": "CCC(=O)c1cc(C#N)cc(NC(=O)c2nnn[nH]2)c1O", "note": "[N, 5'-cyano-2'-hydroxy-3'-propionyltetrazole-5-carboxanilide]", "values": [{"measurement": "ED100", "setting": "[1]", "result": 0.02, "unit": "mg/kg"}]}
{"smiles": "CC(=O)c1cc(N)cc(NC(=O)c2nnn[nH]2)c1O", "note": "[P, 3'-acetyl-5'-amino-2'-hydroxytetrazole-5-carboxanilide]", "values": [{"measurement": "ED100", "setting": "[1]", "result": 0.05, "unit": "mg/kg"}]}
{"smiles": "COc1cccc(NC(=O)c2nnn[nH]2)c1O", "note": "[R, 2'-hydroxy-3'-methoxytetrazole-5-carboxanilide]", "values": [{"measurement": "ED100", "setting": "[1]", "result": 0.02, "unit": "mg/kg"}, {"measurement": "ED50", "setting": "[2]", "result": 2.9, "unit": "mg/kg"}]}
{"smiles": "CCc1cc(NC(=O)c2nnn[nH]2)c(O)c(OC)c1", "note": "[S, 5'-ethyl-2'-hydroxy-3'-methoxytetrazole-5-carboxanilide]", "values": [{"measurement": "ED100", "setting": "[1]", "result": 0.01, "unit": "mg/kg"}, {"measurement": "ED50", "setting": "[2]", "result": 1.8, "unit": "mg/kg"}]}
{"smiles": "COc1cc(C)cc(NC(=O)c2nnn[nH]2)c1O", "note": "[T, 2'-hydroxy-3'-methoxy-5'-methyltetrazole-5-carboxanilide]", "values": [{"measurement": "ED100", "setting": "[1]", "result": 0.02, "unit": "mg/kg"}, {"measurement": "ED50", "setting": "[2]", "result": 6.5, "unit": "mg/kg"}]}
{"smiles": "CCCC(=O)c1cc(C)cc(NC(=O)c2nnn[nH]2)c1O", "note": "[U, 3'-butyryl-2'-hydroxy-5'-methyltetrazole-5-carboxanilide]", "values": [{"measurement": "ED100", "setting": "[1]", "result": 0.05, "unit": "mg/kg"}]}
{"smiles": "Cc1cc(NC(=O)c2nnn[nH]2)c(O)c(C(=O)N(C)C)c1", "note": "[V, 3'-(N,N-dimethylcarbamoyl)-2'-hydroxy-5'-methyltetrazole-5-carboxanilide]", "values": [{"measurement": "ED100", "setting": "[1]", "result": 0.2, "unit": "mg/kg"}]}
{"smiles": "COC(=O)c1cc(C)cc(NC(=O)c2nnn[nH]2)c1O", "note": "[W, 2'-hydroxy-3'-methoxycarbonyl-5'-methyltetrazole-5-carboxanilide]", "values": [{"measurement": "ED100", "setting": "[1]", "result": 0.05, "unit": "mg/kg"}, {"measurement": "ED50", "setting": "[2]", "result": 5.6, "unit": "mg/kg"}]}
{"smiles": "CCOC(=O)c1cc(C)cc(NC(=O)c2nnn[nH]2)c1O", "note": "[X, 3'-ethoxycarbonyl-2'-hydroxy-5'-methyltetrazole-5-carboxanilide]", "values": [{"measurement": "ED100", "setting": "[1]", "result": 0.01, "unit": "mg/kg"}, {"measurement": "ED50", "setting": "[2]", "result": 36, "unit": "mg/kg"}]}
{"smiles": "CCCc1cc(NC(=O)c2nnn[nH]2)c(O)c(C(C)=O)c1", "note": "[Y, 3'-acetyl-2'-hydroxy-5'-propyltetrazole-5-carboxanilide]", "values": [{"measurement": "ED100", "setting": "[1]", "result": 0.01, "unit": "mg/kg"}, {"measurement": "ED50", "setting": "[2]", "result": 0.46, "unit": "mg/kg"}]}
{"smiles": "CC(=O)c1cccc(NC(=O)c2nnn[nH]2)c1O", "note": "[Z, 3'-acetyl-2'-hydroxytetrazole-5-carboxanilide]", "values": [{"measurement": "ED100", "setting": "[1]", "result": 0.005, "unit": "mg/kg"}, {"measurement": "ED50", "setting": "[2]", "result": 0.06, "unit": "mg/kg"}]}
